Read-outs that look alike come from different tables or passages of the source. Each block holds one molecule with its values, some of them ahead of it.
Assays:
[1] = test system: prostate cancer VCap cells; test: Proliferation-inhibiting activity on VCap cells (CellTiter-Glo); format: cell-based; conditions: Homo sapiens; VCap cell line, CellTiter-Glo (FIG. 6)
Procedure: The cell proliferation-inhibiting activity of the compounds was determined using the CellTiter-Glo Luminescent Cell Viability Assay (Promega, Madison, WI). The cells were seeded in a 96-well plate in their respective culture media and incubated at 37°C in a 5% CO2 incubator. After overnight incubation, serial dilutions of the compounds were prepared and added to the 96-well plate. A volume of CellTiter-Glo reagent equal to the volume of the cell culture medium present in each well was added (e.g., 100 microliters of the reagent was added to 100 microliters of the culture medium for the cells in the 96-well plate). The contents were mixed on an orbital shaker for 2 min to induce cell lysis. The 96-well plate was incubated at room temperature for 10 minutes to stabilize a luminescent signal. Luminescence was recorded: the luminescence signal of each well was acquired using an Infinite M1000 Pro plate reader (Tecan, Zürich, Switzerland), and the data were analyzed using GraphPad Prism software (GraphPad Software Inc, La Jolla, CA).

[2] = test system: CDK12 and CDK13 proteins; test: Degradation activity on CDK12/13 in 22RV1 cells (Western Blot); format: cell-based; conditions: for induction of degradation of CDK12 and CDK13 proteins: cell line and concentration not given there; for degradation of CDK12 and CDK13 proteins / degradation of CDK12 and CDK13 protein levels in cells / dose dependence of degradation of CDK12 and CDK13 proteins: 22RV1 cells; for degradation of CDK12 and CDK13 proteins: 100 nM, 6 h (FIG. 5); for degradation of CDK12 and CDK13 protein levels in cells: 500 nM, 6 hours, WB (FIG. 4); for dose dependence of degradation of CDK12 and CDK13 proteins: different concentrations, 6 h (FIG. 4B, FIG. 5)
Procedure: Experimental methods: The cell line, 22RV1 cell line was purchased from the American Type Culture Collection (ATCC). Conventional Western Blot was used for detection as follows: 22RV1 cells were seeded in a certain number in a 12-well plate, and cultured overnight in an incubator in an adherent manner. […] The cells were lysed with a lysis buffer, and samples were collected. Then, an appropriate amount of the samples was taken for SDS-PAGE electrophoresis. After electrophoresis, the proteins were transferred to nitrocellulose membranes using a semi-dry electro-transfer system. The nitrocellulose membrane was placed in a blocking solution (5% skim milk powder diluted in TBS containing 0.1% Tween 20) and blocked at room temperature for 2 h. The membranes were then placed in a primary antibody solution (1: 1000 diluted in TBS containing 0.1% Tween 20), respectively, and incubated at 4°C overnight. The cells were washed three times with TBS containing 0.1% Tween 20, each time for 15 min. The membrane was placed in a secondary antibody solution (horseradish peroxidase-labeled goat anti-rabbit IgG, diluted at 1:1000 in TBS containing 0.1% Tween 20) and reacted at room temperature for 1 h. After washing the membrane three times as above, the membrane was developed with ECL plus reagent and photographed using Amersham Imager 600 system.

[3] = Pharmacokinetics and bioavailability test in rats (Example 60); format: in vivo; conditions: SD rats; for F: bioavailability calculated from AUC; for oral pharmacokinetic properties: summary in words of Tables 2-6; for Cmax / Tmax / clearance / half-life: Sprague-Dawley, rat, plasma
Procedure: (§1) Pharmacokinetics and bioavailability tests in rats. SD rats were given a single oral (10 mg/kg), intravenous (2.5 mg/kg) and intraperitoneal (10 mg/kg) dose, followed by animal blood sample collection at appropriate time points. Heparin was added for anticoagulation, and the samples were centrifuged at 8000 rpm for 6 min. The supernatant was collected and stored at -20°C for HPLC-MS analysis. The blood samples underwent protein precipitation with acetonitrile at 12 000 rpm * 10 min, and the supernatant was used for HPCL-MS analysis. The data underwent parameter fitting with DAS2.0, to obtain compartmental model and non-compartmental model parameters, respectively. The oral bioavailability of the compounds was calculated based on the area under the plasma concentration-time curve (AUC) data. […] Table 2. Pharmacokinetic experimental results of compounds YJZ9069 and YJZ1102

[4] = test system: CDK12 and CDK13 proteins; test: Degradation activity on CDK12/13 in MDA-MB-231 cells (Western Blot); format: cell-based; conditions: 0.1µM or 0.3µM, 15 h, WB (FIG. 1)
Procedure: Experimental methods: The cell line MDA-MB-231 was purchased from the American Type Culture Collection (ATCC). Conventional Western Blot was used for detection, as follows: MDA-MB-231 cells were seeded at a density of 2 x 10^5/mL in a 12-well plate, with 1 mL per well, and cultured overnight in an incubator in an adherent manner. Then, a certain concentration of compounds was added to act for 15 h. The cells were lysed with a lysis buffer, and protein samples were collected. An appropriate amount of the sample was taken for SDS-PAGE electrophoresis. After electrophoresis, the protein was transferred to a polyvinylidene fluoride (PVDF) membrane using a wet electro-transfer system. The PVDF membrane after electro-transfer was cut into several required strips, which were then placed in a blocking solution (5% skim milk powder diluted in TBS containing 0.1% Tween 20) and blocked at room temperature for 1.5 h. A primary antibody solution was prepared by diluting a primary antibody against the corresponding target protein in TBS containing 0.1% Tween 20 according to the dilution requirements of different antibodies, such as 1:1000 (CST), 1:3000 (Proteintech, Bethyl), and 1:200 (Santacruz). The blocked membrane was placed in the corresponding primary antibody solution and incubated at 4°C for 12-14 h. Then, the cells were washed three times with TBS containing 0.1% Tween 20, each time for 5 min. After washing, the membrane was placed in a secondary antibody solution (horseradish peroxidase-labeled goat anti-rabbit IgG, diluted at 1:2000 in TBS containing 0.1% Tween 20) and reacted at room temperature for 2 h. After washing the membrane three times as above, the membrane was developed with StarSignal plus reagent (GenStar®) and Omni-ECL reagent (Yazyme®), and photographed with Amersham Imager 800 system.

[5] = Pharmacokinetics and bioavailability test in rats (Example 57); format: in vivo; conditions: SD rats; for MRT last: read-out: MRT(0-t); for MRT inf: read-out: MRT(0-∞)
Procedure: as §1, with “Table 1.” for “Table 2.”, “of compound zlc-4-93” for “of compounds YJZ9069 and YJZ1102”

[6] = Sprague-Dawley, rat, plasma, iv, i.v. 2.5 mg/kg
[7] = Sprague-Dawley, rat, plasma, Oral 10 mg/kg

Compound: CN1C(=O)CCC(N2C(=O)c3cccc(OCC(=O)N4CCN(c5ccc(N(C(=O)NCc6ccccc6)[C@H]6CC[C@H](Nc7ncc8ccccc8n7)CC6)cc5)CC4)c3C2=O)C1=O (stereo partly drawn) [YJZ1078]
- IC50 [1]: > 5000 nM
- induction of degradation of CDK12 and CDK13 proteins [2]: cannot effectively induce degradation

Compound: O=C1CCC(N2C(=O)c3ccc(N4CCC(CN5CCN(c6ccc(N(C(=O)NCc7ccccc7)[C@H]7CC[C@H](Nc8ncc9ccccc9n8)CC7)cc6)CC5)CC4)cc3C2=O)C(=O)N1 (stereo partly drawn) [YJZ1097, 3-benzyl-1-(4-(4-((1-(2-(2,6-dioxopiperidin-3-yl)-1,3-dioxoisoindole-5-yl)piperidin-4-yl)methyl)piperazin-1-yl)phenyl)-1-((1r,4r)-4-(quinazolin-2-ylamino)cyclohexyl)urea]
- IC50 [1]: 3.93 nM
- degradation of CDK12 and CDK13 proteins [2]: almost completely degrade
- degradation of CDK12 and CDK13 protein levels in cells [2]: effectively degrade
- dose dependence of degradation of CDK12 and CDK13 proteins [2]: dose-dependent manner
- F ([3]; PO 10 mg/kg): 23.89%
- oral pharmacokinetic properties [3]: excellent
- Cmax ([3]; IV 2.5 mg/kg): 2490 ng/mL
- Tmax ([3]; IV 2.5 mg/kg): 0.08 h
- clearance ([3]; IV 2.5 mg/kg): 3.12 mL/min/kg
- half-life ([3]; IV 2.5 mg/kg): 13.8 h
- Cmax ([3]; PO 10 mg/kg): 593 ng/mL
- Tmax ([3]; PO 10 mg/kg): 6.7 h
- half-life ([3]; PO 10 mg/kg): 15.2 h

Compound: O=C1CCC(N2C(=O)c3cc(F)c(N4CCC(N5CCN(c6ccc(N(C(=O)NCc7ccccc7)[C@H]7CC[C@H](Nc8ncc9ccccc9n8)CC7)cn6)CC5)CC4)cc3C2=O)C(=O)N1 (stereo partly drawn) [YJZ1206]
- degradation of CDK12 and CDK13 proteins [2]: almost completely degrade
- degradation of CDK12 and CDK13 protein levels in cells [2]: effectively degrade
- dose dependence of degradation of CDK12 and CDK13 proteins [2]: dose-dependent manner
- F ([3]; PO 10 mg/kg): 39.16%
- oral pharmacokinetic properties [3]: excellent
- Cmax ([3]; IV 2.5 mg/kg): 3120 ng/mL
- Tmax ([3]; IV 2.5 mg/kg): 0.08 h
- clearance ([3]; IV 2.5 mg/kg): 4.29 mL/min/kg
- half-life ([3]; IV 2.5 mg/kg): 5.15 h
- Cmax ([3]; PO 10 mg/kg): 1130 ng/mL
- Tmax ([3]; PO 10 mg/kg): 6 h
- half-life ([3]; PO 10 mg/kg): 6.24 h

Compound: O=C1CCC(N2C(=O)c3cccc(NCCCCCCCCCC(=O)N4CCN(c5cccc(N(C(=O)NCc6ccccc6)[C@H]6CC[C@H](Nc7ncc8ccccc8n7)CC6)c5)CC4)c3C2=O)C(=O)N1 (stereo partly drawn) [YJZ9055]
- IC50 [1]: 2200 nM
- induction of degradation of CDK12 and CDK13 proteins [2]: cannot effectively induce degradation

Compound: N#Cc1ccc(N[C@H]2CC[C@H](N(C(=O)NCc3ccccc3)c3ccc(N4CCN(C[C@@H]5CCN(c6ccc7c(c6)C(=O)N(C6CCC(=O)NC6=O)C7=O)C5)CC4)cc3)CC2)nc1 (stereo partly drawn) [ZLC5-106]
- degradation of CDK12 and CDK13 protein levels in cells [4]: effectively degrade

Compound: N#Cc1ccc(N[C@H]2CC[C@H](N(C(=O)NCc3ccccc3)c3ccc(N4CCC(CN5CC6(C5)CN(c5ccc7c(c5)C(=O)N(C5CCC(=O)NC5=O)C7=O)C6)CC4)cc3)CC2)nc1 (stereo partly drawn) [ZLC6-37]
- degradation of CDK12 and CDK13 protein levels in cells [4]: effectively degrade

Compound: N#Cc1ccc(N[C@H]2CC[C@H](N(C(=O)NCc3ccccc3)c3ccc(N4CCC(CN5CCN(c6ccc7c(c6)C(=O)N(C6CCC(=O)NC6=O)C7=O)CC5)CC4)cc3)CC2)nc1 (stereo partly drawn) [ZLC6-42]
- degradation of CDK12 and CDK13 protein levels in cells [4]: effectively degrade

Compound: N#Cc1ccc(N[C@H]2CC[C@H](N(C(=O)NCc3ccccc3)c3ccc(N4CCC5(CC4)CN(c4ccc6c(c4)C(=O)N(C4CCC(=O)NC4=O)C6=O)C5)cc3)CC2)nc1 (stereo partly drawn) [ZLC6-103]
- degradation of CDK12 and CDK13 protein levels in cells [4]: effectively degrade

Compound: N#Cc1ccc(N[C@H]2CC[C@H](N(C(=O)NCc3ccccc3)c3ccc(N4CCN(CC5CN(c6cc7c(cc6F)C(=O)N(C6CCC(=O)NC6=O)C7=O)C5)CC4)cc3)CC2)nc1 (stereo partly drawn) [ZLC7-36]
- degradation of CDK12 and CDK13 protein levels in cells [4]: effectively degrade

- F ([5]; Oral 10 mg/kg, bioavailability calculated from AUC): 16.46%
- oral pharmacokinetic properties ([5]; summary in words of Table 1): excellent
- AUC(0-inf) [5, 6]: 4740 ng·h/mL
- AUC(0-t) [5, 6]: 4720 ng·h/mL
- Cmax [5, 6]: 2590 ng/mL
- Tmax [5, 6]: 0.08 h
- clearance [5, 6]: 9.85 mL/min/kg
- half-life [5, 6]: 2.38 h
- MRT last [5, 6]: 2.37 h
- MRT inf [5, 6]: 2.44 h
- AUC(0-inf) [5, 7]: 3130 ng·h/mL
- AUC(0-t) [5, 7]: 3110 ng·h/mL
- Cmax [5, 7]: 308 ng/mL
- Tmax [5, 7]: 4 h
- half-life [5, 7]: 3.04 h
- MRT last [5, 7]: 6.06 h
- MRT inf [5, 7]: 6.19 h
Compound: N#Cc1ccc(N[C@H]2CC[C@H](N(C(=O)NCc3ccccc3)c3ccc(N4CCN(C5CCN(c6ccc7c(c6)C(=O)N(C6CCC(=O)NC6=O)C7=O)CC5)CC4)cc3)CC2)nc1 (stereo partly drawn) [zlc-4-93]

Reference: patent EP4671239A1, “ARYL SUBSTITUENT-CONTAINING DEGRADATION AGENT FOR CDK12/13, PREPARATION METHOD THEREFOR, AND PHARMACEUTICAL COMPOSITION AND USE THEREOF” (Shanghai Institute of Organic Chemistry, Chinese Academy of …, priority 2023, dated 2024)
